What was measured:
[1] = test system: spinal cord-dorsal root ganglia (SC-DRG) slices; assay: nerve fiber sprouting from SC-DRG co-cultures; type: cell-based, rat; details: after 4 days of cultivation, portion of explants (out of 6)
Experimental: Neural and Vascular Reconstruction Gel ([…] Labs proprietary) is composed of two main components: high molecular hyaluronic acid (HA, 3×10^6 Da, BTG, Israel) and laminin (Sigma). […] The gel has the texture of a viscous liquid, it adheres easily and successfully the embedded cells or explants to the plastic or glass substratum, and enabled nerve fiber outgrowth in a 3D pattern. All the experiments were carried out and authorized by the local ethics committee recognized by the Israeli authorities for animal experimentation. Stationary organotypic cultures of dorsal root ganglia (DRG) and spinal cord (SC) as well as cultures of dissociated brain cells were prepared from rat fetuses (15 days of gestation, Lewis inbred, Harlan, Israel). Immediately after dissection, the isolated tissues were cut with a […] tissue chopper into small slices (of 400 μm thickness). In these studies, two tissue culture strategies were used. […] In the second method, the tissue slices were further dissociated with a trypsin-EDTA solution for 30 min, and washed with a culture medium. Subsequently, the dissociated cells were added to a suspension of chitosan powder or gastrolith powder (micro carriers, MCs) and incubated in suspension at 37° C. for 4 days. […] Calcium source were as following: ACC-Etidronic Acid (ACC-ET) (fresh suspension); ACC-Phosphoserine (ACC-PS) (fresh suspension); Gastrolith (dissolved with 0.1 M HCl and then neutralized with NaOH 1M); gastrolith powder; […] The cultures were monitored by daily phase contrast microscopic observations starting from 24 hours after setting the cultures onward. Suspensions of fresh ACC preparations consisted of particles forming a stable suspension. The gastrolith is a natural ACC isolated from crabs, and can be purchased only as a dry powder. In this form, its other characteristic components (such as calcium ions and proteins) are not available to the cells. In order to increase their bioavailability, the gastrolith powder was dissolved in 0.1 M HCl (which mimics the acidity which exists in the stomach) and then neutralized with 1M NaOH. […] The specimens were then incubated with rabbit anti-neurofilament antibodies (NF, Novus Biologicals, 1:500) to visualize the neurite outgrowth. […] Finally, the samples were rinsed again with wash buffer, and mounted with mounting medium (Immco Diagnostic, USA).

[2] = test system: healthy skeletal muscle cultures; assay: myotube formation and contraction in healthy skeletal muscle cultures; type: cell-based, rat; details: added at 1 mM (final Ca2+ 2 mM)
Experimental: Stationary skeletal muscle cultures were prepared from healthy 1 day new born rat (Sprague Dawley, Harlan, Israel). The muscle tissue was dissected from posterior legs and was thoroughly minced. Digestion was performed with Trypsin-EDTA while gentle trituration. After 30 min the supernatant, containing dissociated cells, was collected and a fresh Trypsin-EDTA was added. This procedure was repeated two more times. Then, all supernatants were pooled, centrifuged, and the cell pellet was re-suspended in Proliferation Medium. Cells were seeded in a Gelatin coated 12 wells culture plates, 1×10^5 cells/well containing 1 mL of Proliferation Medium. Two days later, the medium was changed to Fusion Medium, which was then changed twice a week. The cultures were monitored by daily phase contrast microscopic observations from 24 hours after setting the cultures and onward.
Stock solution of 1% porcine gelatin in water, was sterilized by autoclave. Once cooled, 500 μl of the solution were added to each well of the 12-wells culture plat. After incubation for 20 min at room temperature, the excess solution was removed, and the cells were seeded.
For the proliferation stage, cells were cultured in: DMEM/F12 (containing 1 mM Ca^2+) +10% FBS, 25 μg/mL Gentamycin, and 2 mM L-Glutamine.
For the fusion stage the Proliferation Medium was changed with Fusion Medium, which was prepared as following: DMEM/F12 (containing 1 mM Ca2+), 2% horse serum (HS), 2 mM L-Glutamine, 25 μg/mL Gentamycin, and 4 units/100 mL Insulin (all purchased from Biological-Industries, Israel).
Control cultures were grown without further added calcium, or cultures enriched with free (soluble) stabilizer. The experiment was blinded by marking the various calcium preparations with arbitrary numerals only.
The components were added in one of the following ways: (i) aqueous suspensions of dry material; (ii) aqueous suspension of fresh material (before drying), or (iii) dissolved with HCl (to mimic the acidity which exists in the stomach. After dissolving was accomplished, the formed solutions were neutralized with 1M NaOH).

mdx mice = assay: serum creatinine kinase (CK) levels in mdx mice given calcium supplements orally; type: in vivo; details: 12 weeks
Text: Experimental mice were administrated orally (by feeding or drinking) with control or test items. The control or test items were repeatedly administered daily until the study termination (after 12 weeks).
Animals were administrated with ACC by food or by drinking. Animals were administrated with CCC by food. Control was administrated by feeding. The control or test items were repeatedly administered daily until study termination.
At study termination blood sample was drawn from all animals under light anesthesia with Ketmaine/Xylazine, directly from the retro orbital sinus.
200 μl blood were collected into a yellow-cup tube with clotting activator gel. The tubes were kept at room temperature for at least 30 minutes for clotting and centrifuged at room temperature for 10 minutes at 4000 RPM. The serum samples are stored at 2-4° C. until delivered to CK analysis at A.M.L labs.

mice embryos = assay: in vitro embryo development in Quinn's Advantage cleavage media; type: cell-based
Experimental: CBA male mice were bred with BL C57 female mice. The mice were kept on a 12 hours photoperiod schedule with unlimited water and food supply. About 6 to 8 weeks after receiving offspring, each female mouse was injected IP with 5IU of pregnant mare serum gonadotropin (PMSG).
After 48 hours each female mouse was injected IP with 5IU human chorionic gonadotropin (hCG). Male mice proven to be fertile were then put together with the superovulated females. The next morning the female mice were examined for the presence of copulatory plugs. Females that had copulatory plugs were euthanized after 24 hours (approximately 36 hours post-coitus) and embryos at 2 cell stage were retrieved from the oviducts as following: the oviducts were dissected in Quinn's Advantage cleavage media (SAGE, Origio, Denmark) and the embryos were transferred to 20 μL drops with Quinn's Advantage cleavage media (SAGE, Origio, Denmark) overlaid with mineral oil and cultured at 37.0° C. under 5% CO2 and atmospheric oxygen. The collected embryos continued to grow, i.e. in-vitro culture (IVC), until blastocyst/hatching stage. To test the effect of amorphous calcium carbonate, the Quinn's Advantage cleavage media (“cleavage media” hereinafter) was supplemented with different additives, i.e. amorphous calcium carbonate stabilized by polyphosphate (ACC-PP), crystalline calcium carbonate (CCC), polyphosphate (PP), phosphoserine (PS) or sodium carbonate ([…]). All supplements were added as a freshly prepared suspension; the preparation of the ACC supplements were performed under aseptic conditions. Untreated cleavage media (without addition of any additive) was used as a control (identified as Cont Q). The embryos were evaluated every day by microscope observation for a detection of the following stages: 2 cells, compactions stage, blastocysts formation and hatching stage. The fraction (in percent) of the embryos reached each stage was calculated (the number of 2 cells embryos was set as 100%).

sperm = details: addition to calcium-free mediums; Bhoumik et al. 2014; cited from earlier work
[3] = Example 15, pooled embryos, 3.3 mM in cleavage media
[4] = Example 17, mouse 1 sibling embryos, 1.7 mM in cleavage media
[5] = Example 17, mice 3-6 pooled embryos, 1.7 mM in cleavage media
[6] = Example 17, mouse 2 sibling embryos, 1.7 mM in cleavage media
[7] = Example 16, pooled embryos, 1.7 mM in cleavage media
[8] = Example 13, mice 3-7 pooled embryos, 1.6 mM in cleavage media
[9] = Example 14, pooled embryos, 1.6 mM in cleavage media

Compound: O=C([O-])[O-].[Ca+2] [CCC, crystalline calcium carbonate]
- Cultures with axonal regeneration (%) ([1]; calcium preparation at Ca2+ 2 mM): 50%
- muscle fibers after 7 days [2]: fewer, thinner and shorter muscle fibers
- early formation of many myotubes, time of cultivation ([2]; dry powder suspended in water): later
- elevation of CK compared to mdx group on normal diet only (2M) (mdx mice; by food, diet with 1% elemental calcium (4M: synthetic ACC 5% PS; 3M: synthetic CCC)): not statistically significant
- creatinine kinase (CK) in serum (mdx mice; group 3M: by food, diet with 1% elemental calcium): 21,676±14,508 IU/ml
- 8 cell/d2: number of embryos (mice embryos; [3]): 3
- Blast/d3: number of embryos (mice embryos; [3]): 17
- Blast/d3: portion of the initial number of embryos (mice embryos; [3]): 100%
- Hatch/d4: number of embryos (mice embryos; [3]): 14
- Hatch/d4: portion of the initial number of embryos (mice embryos; [3]): 82.35%
- comp/d2: number of embryos (mice embryos; [3]): 14
- 8 cell/d2: number of embryos (mice embryos; [4]): 14
- Blast/d3: number of embryos (mice embryos; [4]): 12
- Blast/d4: number of embryos (mice embryos; [4]): 5
- Hatch/d4: number of embryos (mice embryos; [4]): 15
- Hatch/d4: portion of the initial number of embryos (mice embryos; [4]): 62.5%
- comp/d2: number of embryos (mice embryos; [4]): 6
- degenerative: number of embryos (mice embryos; [4]): 1
- early Blast/d3: number of embryos (mice embryos; [4]): 8

Compound: [Ca+2] [Ca^2+ ions]
- increase of forward sperm motility (sperm): up to 20%

Compound: CC(O)(P(=O)(O)O)P(=O)(O)O [ET, Etidronic Acid]
- Cultures with axonal regeneration (%) ([1]; stabilizer alone at 0.05%): 33.3%

Compound: O=C([O-])[O-].[Na+].[Na+] [NaCO3, sodium carbonate]
- embryonic development compared to control or to the addition of ACC-PP (mice embryos; Example 17, 1.7 mM in cleavage media): very poor embryonic development
- 8 cell/d2: number of embryos (mice embryos; [5]): 2
- Blast/d3: number of embryos (mice embryos; [5]): 0
- Blast/d4: number of embryos (mice embryos; [5]): 0
- Hatch/d4: number of embryos (mice embryos; [5]): 0 (0)
- Hatch/d4: portion of the initial number of embryos (mice embryos; [5]): 0 (0) %
- comp/d2: number of embryos (mice embryos; [5]): 7
- degenerative: number of embryos (mice embryos; [5]): 1
- early Blast/d3: number of embryos (mice embryos; [5]): 0
- 8 cell/d2: number of embryos (mice embryos; [6]): 6
- Blast/d3: number of embryos (mice embryos; [6]): 2
- Blast/d4: number of embryos (mice embryos; [6]): 0
- Hatch/d4: number of embryos (mice embryos; [6]): 2
- Hatch/d4: portion of the initial number of embryos (mice embryos; [6]): 12.5%
- comp/d2: number of embryos (mice embryos; [6]): 8
- degenerative: number of embryos (mice embryos; [6]): 2
- early Blast/d3: number of embryos (mice embryos; [6]): 14

Compound: N[C@@H](COP(=O)(O)O)C(=O)O [PS, phosphoserine]
- Cultures with axonal regeneration (%) ([1]; stabilizer alone at 0.05%): 0%
- 8 cell/d2: number of embryos (mice embryos; [7]): 5
- Blast/d3: number of embryos (mice embryos; [7]): 12
- Blast/d3: portion of the initial number of embryos (mice embryos; [7]): 92.3%
- Hatch/d4: number of embryos (mice embryos; [7]): 10
- Hatch/d4: portion of the initial number of embryos (mice embryos; [7]): 76.9%
- comp/d2: number of embryos (mice embryos; [7]): 8

Compound: polyphosphate [PP]
- 8 cell/d2: number of embryos (mice embryos; [8]): 9
- Blast/d3: number of embryos (mice embryos; [8]): 20
- Blast/d3: portion of the initial number of embryos (mice embryos; [8]): 54.1%
- Hatch/d4: number of embryos (mice embryos; [8]): 17
- Hatch/d4: portion of the initial number of embryos (mice embryos; [8]): 45.9%
- comp/d2: number of embryos (mice embryos; [8]): 20
- 8 cell/d2: number of embryos (mice embryos; [9]): 6
- Blast/d3: number of embryos (mice embryos; [9]): 34
- Blast/d3: portion of the initial number of embryos (mice embryos; [9]): 94.44%
- Hatch/d4: number of embryos (mice embryos; [9]): 16
- Hatch/d4: portion of the initial number of embryos (mice embryos; [9]): 44.44%
- comp/d2: number of embryos (mice embryos; [9]): 30

From US12629390B2, “Stabilized amorphous calcium carbonate for treatment of neurological, muscular and infertility diseases or conditions” (AMORPHICAL LTD., priority 2016, dated 2026)
